Laboratory results from PubChem BioAssay AID1194 (EPA DSSTox, 2008).
Activity calls are given as the source filed them.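 The calls were made as follows: active = chemicals rated mutagenic or weakly mutagenic in the Salmonella bacterial test by one literature review, or positive overall by another; inconclusive = no clear call, values can overlap the other calls; inactive = the rest.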

These compounds were tested on Salmonella typhimurium Ames mutagenicity, literature compiled (assay: DSSTox (CPDBAS) Carcinogenic Potency Database Salmonella Mutagenicity).
Procedure, shortened: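 Calls derive from published evaluations rather than new testing; overall "positive" in EPA Gene-Tox, or "mutagenic"/"weakly mutagenic" per Zeiger, counts as active.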

Structure (SMILES) | outcome
Cc1ccc(N=Nc2c(O)ccc3ccccc23)c([N+](=O)[O-])c1 | active; inactive
CCCCCCc1ccc(O)cc1O | inactive; active
BrCCBr | active
CCCOC(=O)c1cc(O)c(O)c(O)c1 | inactive
COc1cc2c(c3oc(=O)c4c(c13)CC[C@H]4O)[C@@H]1C=CO[C@H]1O2 | active
Clc1ccc(C(c2ccc(Cl)cc2)C(Cl)Cl)cc1 | inactive
O=NN1CCCN(N=O)CC1 | active
[Cl-].[Cl-].[Sn+2] | inactive
c1ccc2c(c1)Oc1ccccc1O2 | inactive
COC(=O)C1=CCCN(N=O)C1 | active
C=CCc1ccc(O)c(OC)c1 | inactive
C=C1C(CCl)(CCl)C2(Cl)C(Cl)C(Cl)C1(Cl)C2(Cl)Cl (configuration not stated) | active; inactive
O=C1C2(Cl)C3(Cl)C4(Cl)C(Cl)(Cl)C5(Cl)C3(Cl)C1(Cl)C5(Cl)C24Cl (configuration not stated) | inactive; active
CN(C)[C@@H]1C(=O)C(C(N)=O)=C(O)[C@@]2(O)C(=O)C3=C(O)c4c(O)cccc4[C@@](C)(O)[C@H]3[C@H](O)[C@@H]12 | inactive
O=S1OCC2C(CO1)C1(Cl)C(Cl)=C(Cl)C2(Cl)C1(Cl)Cl (configuration not stated) | inactive; active
Oc1cc2c(cc1O)[C@H]1c3ccc(O)c(O)c3OC[C@@]1(O)C2 | inactive; active
O=P(O)(O)O | active; inactive
ClCC(Cl)CCl | active; inactive
COc1ccc(O)cc1 | inactive; active
NC(=O)N/N=C/c1ccc([N+](=O)[O-])o1 | active
Nc1ccc2cc3ccc(N)cc3nc2c1 | active
COc1cc(CNC(=O)CCCC/C=C/C(C)C)ccc1O | inactive; active
N=C1C=CC(=C(c2ccc(N)cc2)c2ccc(N)cc2)C=C1 | active

Structure (SMILES) | outcome
COc1cccc2c1C(=O)c1c(O)c3c(c(O)c1C2=O)C[C@@](O)(C(=O)CO)C[C@@H]3O[C@H]1C[C@H](N)[C@H](O)[C@H](C)O1 | active
CN(N=O)C(=O)c1ccccc1 | active
Cc1cccc(N=Nc2ccc(N(C)C)cc2)c1 | active; inactive
O=c1[nH]cc(F)c(=O)[nH]1 | inactive; active
Cc1cc(C)c(S(=O)(=O)O)cc1N=Nc1cc(S(=O)(=O)O)c2ccccc2c1O | inactive; active
COC(C)(C)C | inactive; active
CC[N+](=O)[O-] | inactive; active
COP(=O)(OC)OC | active; inactive
O=C/C(Cl)=C(/Cl)C(=O)O | active
O=NN1CCCCC1 | active
CCCCCCCCS(=O)C(C)Cc1ccc2c(c1)OCO2 (configuration not stated) | inactive; active
CCOc1ccc(NC(N)=O)cc1 | inactive; active
COc1cccc2c1cc([N+](=O)[O-])c1c(C(=O)O)cc3c(c12)OCO3 | active
COc1cc2c(c3oc(=O)c4c(c13)CCC4=O)C1C=COC1O2 (configuration not stated) | active
O=C1CCCO1 | inactive; active
CN(C#N)N=O | active; inactive
C[C@H](CCC(=O)O)[C@H]1CC[C@H]2[C@@H]3CC[C@@H]4C[C@H](O)CC[C@]4(C)[C@H]3CC[C@]12C | inactive
Nc1cc(Cl)cc(C(=O)O)c1Cl | active
OCl | inactive; active
O=C1N(CCO)CCN1/N=C/c1ccc([N+](=O)[O-])o1 | active
COc1c2occc2cc2ccc(=O)oc12 | active
Nc1cccc2c(N)cccc12 | active
CCN(CC)C(=O)c1cccc(C)c1 | inactive; active

Structure (SMILES) | outcome
O=S(=O)(O)c1cc(S(=O)(=O)O)c2c(N=Nc3ccccc3)c(O)ccc2c1 | inactive; active
[C-]1=CC=CC1.[C-]1=CC=CC1.[Cl-].[Cl-].[Ti+4] | active; inactive
C=C(C)[C@H]1CC=C(C)C(=O)C1 | inactive; active
NC(N)=S | inactive; active
CC(=O)Nc1ccc(C(=O)CCl)cc1 | active
CC(=O)OC(OC(C)=O)c1ccc([N+](=O)[O-])o1 | active
c1ccc(NNc2ccccc2)cc1 | active
Cc1ccc(O)c(O)c1 | inactive; active
CN(C)N | active
Cc1c(N(C)C)c(=O)n(-c2ccccc2)n1C | active
Cc1ccccc1N | active
COP(=S)(OC)Oc1ccc(SC)c(C)c1 | inactive; active
CC1=C(/C=C/C(C)=C/C=C/C(C)=C/C=C/C=C(C)/C=C/C=C(C)/C=C/C2=C(C)CCCC2(C)C)C(C)(C)CCC1 | active; inactive
c1ccc2c(c1)Nc1ccccc1S2 | inactive
c1ccoc1 | inactive
OCCOCCOCCO | active; inactive
Clc1ccc(C(c2ccc(Cl)cc2)C(Cl)(Cl)Cl)cc1 | inactive
O=Nc1ccc(NO)cc1 | active; inactive
COc1cc2c(c3oc4cccc(O)c4c(=O)c13)C1C=COC1O2 (configuration not stated) | active; inactive
Oc1ccccc1O | inactive; active
CCOc1ccc(NC(C)=O)cc1[N+](=O)[O-] | active; inactive
